Test results reported in US8063059B2, “Use of compositions containing kappa-opioid receptor antagonists for the treatment of dissociative disorders” (Emodys GmbH, priority 2006, dated 2011).

Experiments:
[1] = test system: patient diagnosed with post traumatic stress disorders; assay: Medical Application Example 1: buprenorphine in a patient with post traumatic stress disorders; assay type: in vivo, human; conditions: one patient
Experimental: Buprenorphine in the form of a tablet with an active ingredient content of 12 mg was administered sublingually to a patient diagnosed with post traumatic stress disorders with the corresponding psychiatric symptoms.

[2] = test system: patient diagnosed with emotionally unstable personality disorder; assay: Medical Application Example 3: buprenorphine in patients with emotionally unstable personality disorder; assay type: in vivo, human
Experimental: In medical application examples 3 and 4 buprenorphine, alone or in conjunction with a kappa-opioid receptor antagonist, is used for patients diagnosed with emotionally unstable personality disorder as a possibility for treating the personality disorder and reducing the associated social, somatic and psychiatric consequences.
Buprenorphine was administered as a mucoadhesive sachet with an active ingredient content of 12 mg to a patient diagnosed with emotionally unstable personality disorder.

[3] = one year following the start of treatment

## 2-(N-cyclopropylmethyl-4,5alpha-epoxy-3-hydroxy-6-methoxy-6,14-endoethanomorphinan-7alpha-yl)-3,3-dimethyl-2-butanol [Buprenorphine]
[1]; [3]
  flashback symptoms and daily life intrusions: significant improvement
  lethargy and emotional swings, intrusive dissociation sensations (patient-indicated): clear subjective improvement
[1]; sublingual tablet, daily dosage increased from 12 mg to 16 mg
  occurrence of flashback situations: decrease significantly
[2]; one patient, daily ingestion of 12 mg, after one year
  self-injuries after one year: complete lack of self-injuries
[2]; one patient, mucoadhesive sachet, 12 mg
  self-injuring behaviour: complete remission
[2]; two other patients
  frequency of self-cutting: significant reduction
